According to ChEMBL document CHEMBL1177708, “Design, synthesis, and biological evaluation of a novel class of gamma-secretase modulators with PPARgamma activity” (J Med Chem, 2010):
The source made the active and inactive calls. The calls are words filed in the database; no cut-off is given here.

Legend:
[1] = molecular target: T1, Prostaglandin G/H synthase 2 (Homo sapiens) (UniProt P35354); test: Inhibition of human recombinant COX2 assessed as residual activity at 10 uM after 5 mins
T1 sequence (whole entry): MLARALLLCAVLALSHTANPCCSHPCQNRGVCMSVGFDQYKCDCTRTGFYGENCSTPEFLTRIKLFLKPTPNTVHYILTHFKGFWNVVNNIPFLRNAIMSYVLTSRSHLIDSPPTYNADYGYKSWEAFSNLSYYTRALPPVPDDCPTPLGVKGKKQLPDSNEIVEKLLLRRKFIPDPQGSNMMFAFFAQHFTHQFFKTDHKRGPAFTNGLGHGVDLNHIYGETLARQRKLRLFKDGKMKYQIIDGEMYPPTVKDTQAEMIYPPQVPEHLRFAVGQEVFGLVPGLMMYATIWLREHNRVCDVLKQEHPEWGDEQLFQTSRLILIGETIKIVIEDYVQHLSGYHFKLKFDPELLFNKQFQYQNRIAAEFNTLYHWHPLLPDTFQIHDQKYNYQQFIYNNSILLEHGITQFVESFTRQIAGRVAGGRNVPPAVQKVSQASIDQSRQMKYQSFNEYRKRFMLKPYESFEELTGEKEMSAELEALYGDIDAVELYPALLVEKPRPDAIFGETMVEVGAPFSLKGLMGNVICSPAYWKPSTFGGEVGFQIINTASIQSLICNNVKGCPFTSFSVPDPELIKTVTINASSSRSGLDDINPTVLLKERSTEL

[2] = molecular target: T2, Peroxisome proliferator-activated receptor alpha (Homo sapiens) (UniProt Q07869); test: Agonist activity at human PPARalpha-LBD expressed in COS7 cells co-transfected with Gal4 at 10 uM by luciferase based transactivation assay; assay type: functional, cell-based; conditions: COS-7
T2 sequence (whole entry): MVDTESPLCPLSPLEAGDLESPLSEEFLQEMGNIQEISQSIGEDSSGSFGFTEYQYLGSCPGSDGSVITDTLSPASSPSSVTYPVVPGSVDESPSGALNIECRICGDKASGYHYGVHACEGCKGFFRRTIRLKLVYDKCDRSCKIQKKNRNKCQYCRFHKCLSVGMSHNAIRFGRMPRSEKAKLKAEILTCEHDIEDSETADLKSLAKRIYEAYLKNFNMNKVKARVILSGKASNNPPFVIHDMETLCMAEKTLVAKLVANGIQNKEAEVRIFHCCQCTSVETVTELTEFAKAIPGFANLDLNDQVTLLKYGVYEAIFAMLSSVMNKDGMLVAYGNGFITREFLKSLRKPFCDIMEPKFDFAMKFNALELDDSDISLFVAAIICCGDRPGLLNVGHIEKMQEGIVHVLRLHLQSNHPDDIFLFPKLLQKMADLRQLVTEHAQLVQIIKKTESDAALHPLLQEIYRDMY

[3] = molecular target: T3, Peroxisome proliferator-activated receptor delta (Homo sapiens) (UniProt Q03181); test: Agonist activity at human PPARdelta-LBD expressed in COS7 cells co-transfected with Gal4 at 10 uM by luciferase based transactivation assay; assay type: functional, cell-based; conditions: COS-7
T3 sequence (whole entry): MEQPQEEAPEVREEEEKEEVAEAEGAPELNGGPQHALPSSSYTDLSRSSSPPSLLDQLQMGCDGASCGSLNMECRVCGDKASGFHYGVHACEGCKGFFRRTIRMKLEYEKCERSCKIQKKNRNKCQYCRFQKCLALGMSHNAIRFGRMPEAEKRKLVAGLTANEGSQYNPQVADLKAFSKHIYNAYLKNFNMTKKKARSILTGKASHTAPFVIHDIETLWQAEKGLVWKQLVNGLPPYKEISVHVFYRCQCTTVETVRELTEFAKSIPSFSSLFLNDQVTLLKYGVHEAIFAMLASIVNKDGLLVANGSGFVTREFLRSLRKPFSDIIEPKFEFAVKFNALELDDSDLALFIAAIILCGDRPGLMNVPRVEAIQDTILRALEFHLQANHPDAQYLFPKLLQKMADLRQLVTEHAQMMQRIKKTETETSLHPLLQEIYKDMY

[4] = molecular target: T4, Peroxisome proliferator-activated receptor gamma (Homo sapiens) (UniProt P37231); test: Agonist activity at human PPARgamma-LBD expressed in COS7 cells co-transfected with Gal4 at 6 uM by luciferase based transactivation assay; assay type: functional, cell-based; conditions: COS-7
T4 sequence (whole entry): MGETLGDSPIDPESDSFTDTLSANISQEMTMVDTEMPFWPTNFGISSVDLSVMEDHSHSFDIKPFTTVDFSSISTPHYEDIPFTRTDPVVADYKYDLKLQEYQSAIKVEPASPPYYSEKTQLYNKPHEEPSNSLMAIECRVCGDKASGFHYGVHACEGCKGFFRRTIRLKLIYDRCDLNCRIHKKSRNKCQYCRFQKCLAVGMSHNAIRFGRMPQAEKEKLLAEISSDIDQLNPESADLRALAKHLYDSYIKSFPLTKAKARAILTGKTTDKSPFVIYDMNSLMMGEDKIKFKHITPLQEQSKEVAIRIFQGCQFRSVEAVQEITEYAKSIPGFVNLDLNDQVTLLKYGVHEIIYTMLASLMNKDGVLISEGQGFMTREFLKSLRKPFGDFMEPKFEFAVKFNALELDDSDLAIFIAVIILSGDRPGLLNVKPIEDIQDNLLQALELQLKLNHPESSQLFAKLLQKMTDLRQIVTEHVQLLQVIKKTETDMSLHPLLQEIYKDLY

[5] = tested on: CHO; test: Cytotoxicity against CHO cells at 60 uM after 24 hrs by Alamar blue assay; assay type: cell-based, Cricetulus griseus; conditions: chinese hamster
[6] = molecular target: T5, Prostaglandin G/H synthase 1 (Ovis aries) (UniProt P05979); test: Inhibition of ovine COX1 assessed as residual activity at 10 uM after 5 mins
T5 sequence (whole entry): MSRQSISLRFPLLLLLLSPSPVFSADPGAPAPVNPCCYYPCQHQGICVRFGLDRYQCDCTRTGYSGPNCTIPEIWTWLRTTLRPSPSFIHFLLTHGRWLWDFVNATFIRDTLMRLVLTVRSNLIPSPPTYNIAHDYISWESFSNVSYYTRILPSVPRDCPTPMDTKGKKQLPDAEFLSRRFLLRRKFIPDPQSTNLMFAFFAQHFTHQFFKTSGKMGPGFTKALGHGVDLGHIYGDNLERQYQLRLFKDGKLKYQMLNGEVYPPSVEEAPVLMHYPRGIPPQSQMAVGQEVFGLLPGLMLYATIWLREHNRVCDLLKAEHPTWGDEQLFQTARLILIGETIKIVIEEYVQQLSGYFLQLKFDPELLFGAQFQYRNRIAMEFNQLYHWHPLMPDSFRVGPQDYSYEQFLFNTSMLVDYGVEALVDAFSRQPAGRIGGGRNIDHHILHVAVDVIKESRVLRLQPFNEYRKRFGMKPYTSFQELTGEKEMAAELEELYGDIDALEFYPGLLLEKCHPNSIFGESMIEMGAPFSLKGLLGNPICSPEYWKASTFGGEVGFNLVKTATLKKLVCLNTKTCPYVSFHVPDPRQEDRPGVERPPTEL

[7] = cells; conditions: CHO, 24 h
Description: Modulation of gamma-secretase-mediated cleavage of human APP expressed in CHO cells with human presenilin-1 assessed as inhibition of amyloid beta42 production after 24 hrs by ELISA

[8] = molecular target: T4, Peroxisome proliferator-activated receptor gamma (Homo sapiens); test: Agonist activity at human PPARgamma-LBD expressed in COS7 cells co-transfected with Gal4 at 20 uM by luciferase based transactivation assay; assay type: functional, cell-based; conditions: COS-7
[9] = Modulation of gamma-secretase-mediated cleavage of human APP expressed in CHO cells with human presenilin-1 assessed as activation of amyloid beta38 production after 24 hrs by ELISA; assay type: cell-based
[10] = molecular target: T6, Peroxisome proliferator-activated receptor gamma (Homo sapiens, UniProt P37231); test: Agonist activity at human PPARgamma-LBD expressed in COS7 cells co-transfected with Gal4 by luciferase based transactivation assay; assay type: functional, cell-based, COS-7
T6 sequence (P37231 whole entry): T4 sequence (whole entry)

[11] = molecular target: T4, Peroxisome proliferator-activated receptor gamma (Homo sapiens); test: Agonist activity at human PPARgamma-LBD expressed in COS7 cells co-transfected with Gal4 by luciferase based transactivation assay relative to pioglitazone; assay type: functional, cell-based; conditions: COS-7
[12] = tested on: CHO; test: Modulation of gamma-secretase-mediated notch signaling expressed in CHO cells transfected with Gal4-DNA-binding/VP16 transactivation domain assessed as reduction of reporter activity at 5 to 40 uM after 24 hrs; assay type: cell-based
[13] = tested on: CHO; test: Cytotoxicity against CHO cells at 40 uM after 24 hrs by Alamar blue assay; assay type: cell-based, Cricetulus griseus; conditions: chinese hamster
[14] = molecular target: T7, Prostaglandin G/H synthase 1 (Ovis aries, UniProt P05979)
T7 sequence (P05979 whole entry): T5 sequence (whole entry)
Description: Inhibition of ovine COX1 after 5 mins

[15] = molecular target: T4, Peroxisome proliferator-activated receptor gamma (Homo sapiens); test: Agonist activity at human PPARgamma-LBD expressed in COS7 cells co-transfected with Gal4 at 10 uM by luciferase based transactivation assay; assay type: functional, cell-based; conditions: COS-7
[16] = tested on: CHO; test: Modulation of gamma-secretase-mediated notch signaling expressed in CHO cells transfected with Gal4-DNA-binding/VP16 transactivation domain assessed as reduction of reporter activity at 0.5 uM after 24 hrs; assay type: cell-based
[17] = molecular target: T4, Peroxisome proliferator-activated receptor gamma (Homo sapiens); test: Agonist activity at human PPARgamma-LBD expressed in COS7 cells co-transfected with Gal4 at 10 uM by luciferase based transactivation assay; conditions: COS-7
[18] = molecular target: T7, Prostaglandin G/H synthase 1; remark: listed apart in the source
Description: Inhibition of ovine COX1 after 5 mins

Activity [1] [%] | Activity [2] | Activity [3] | Activity [4] [%] | Activity [6] [%] | IC50 [7] [µM] | Activity [8] [%] | EC50 [9] [µM] | EC50 [10] [µM] | Emax [11] [%] | IC50 [14] [µM] | Activity [15] [%] | Activity [17] | Structure (SMILES) | Activity [5] | Activity [12] | Activity [13] | Activity [16] | IC50 [18]
91.6 | inactive | inactive | 33 | 82.1 | 31.2 |  |  |  |  |  |  |  | CCCCC(Sc1nc(OCCc2ccc([N+](=O)[O-])cc2)cc(OCCc2ccc([N+](=O)[O-])cc2)n1)C(=O)O (stereo not given) | Non-toxic |  |  |  | 
102 | inactive | inactive |  | 76.6 | 37.7 | 32 | 17.5 |  |  |  |  |  | CCCCC(Sc1nc(OCCc2ccsc2)cc(OCCc2ccsc2)n1)C(=O)O (stereo not given) | Non-toxic |  |  |  | 
69 | inactive | inactive |  | 54.4 | 6 |  | 1.8 | 11 | 112 | 16.9 |  |  | CCCCC(Sc1nc(OCCc2ccc(C(F)(F)F)cc2)cc(OCCc2ccc(C(F)(F)F)cc2)n1)C(=O)O (stereo not given) | 25% | inactive | Non-toxic |  | 
98.5 | inactive | inactive |  | 73.9 | 21.5 |  | 8.4 |  |  |  | 22 |  | CCCC[C@@H](Sc1nc(OCCc2ccccc2)cc(OCCc2ccccc2)n1)C(=O)O | Non-toxic |  |  |  | 
94.6 | inactive | inactive |  | 72.8 | 19.3 |  | 6.2 |  |  |  | 23 |  | CCCCC(Sc1nc(OCCc2ccc(OC)cc2)cc(OCCc2ccc(OC)cc2)n1)C(=O)O (stereo not given) | Non-toxic |  |  |  | 
 |  |  |  |  |  |  |  |  |  |  |  |  | CC(C)C[C@H](NC(=O)[C@H](Cc1ccccc1)C[C@@H](O)[C@H](Cc1ccccc1)NC(=O)OC(C)(C)C)C(=O)N[C@@H](Cc1ccccc1)C(N)=O |  |  |  | Active | 
61.6 | inactive | inactive |  | 88.9 | 25.2 | 31 | 24.2 |  |  |  |  |  | CCCCC(Sc1nc(OCc2ccccc2)cc(OCc2ccccc2)n1)C(=O)O (stereo not given) | Non-toxic |  |  |  | 
86 | inactive | inactive |  | 72.2 | 29.3 |  | 12.8 |  |  |  |  | inactive | O=C(O)C(Sc1nc(OCCc2ccccc2)cc(OCCc2ccccc2)n1)c1ccccc1 (stereo not given) | Non-toxic |  |  |  | 
50.1 | inactive | inactive |  | 56.1 | 11.3 |  | 1.9 |  |  |  |  | inactive | CCCCC(Sc1nc(OCCC2CCCCCC2)cc(OCCC2CCCCCC2)n1)C(=O)O (stereo not given) | Non-toxic |  |  |  | 

Structure (SMILES) | Activity [1] [%] | Activity [2] | Activity [3] | Activity [4] [%] | Activity [6] [%] | IC50 [7] [µM] | Activity [8] [%] | EC50 [9] [µM] | EC50 [10] [µM] | Emax [11] [%] | IC50 [14] [µM] | Activity [15] [%] | Activity [17] | Activity [5] | Activity [12] | Activity [13] | Activity [16] | IC50 [18]
C[C@@H](C(=O)O)c1ccc(-c2ccccc2)c(F)c1 [TARENFLURBIL] |  |  |  |  |  | 305 |  |  |  |  |  |  |  |  |  |  |  | Not Active
